Data as given in publication PMC7600679, “Benzoxazole-Based Metal Complexes to Reverse Multidrug Resistance in Bacteria” (Antibiotics, 2020).
pIC50: −log10 of the molar value. Converted amounts (≈) assume the structure as drawn. Where two headings read alike, the source gives them in different places.

Legend:
[1] = tested on: S. aureus MRSA 272123; test: Resistance modulation (MIC reduction) assay with CIP and TET; format: cell-based, Staphylococcus aureus; conditions: for MIC of antibiotic in the absence of the compounds: antibiotic alone; for Reduction of the MIC value of CIP: compound at a quarter of the MIC; for CIP MIC in combination with compounds: compound at ¼ MIC, value is the MIC of ciprofloxacin
Method: (§1) The resistance modulation effects of compounds with ciprofloxacin (CIP) and tetracycline (TET) antibiotics were evaluated by the MIC reduction method on the Gram-negative E. coli AG100, AG100 A, and the Gram-positive S. aureus ATCC and MRSA strains.
(§2) The chemosensitizing activity of benzoxazole-type ligands and their metal complexes was determined based on the MIC values of the antibiotics in the presence of sub-inhibitory concentrations of the compounds (¼ MIC) in both Gram-negative and Gram-positive strains. The MICs were determined in strains by the two-fold broth microdilution method in 96-well plates, using serial dilutions of TET and CIP. The first four rows contained two-fold dilutions of antibiotics, and combinations of the TET and CIP and tested compounds were transferred into the last four rows. The 10^−4 dilution of an overnight bacterial culture in 50 μL of MHB was then measured to each well, except for the medium control wells. The plates were kept at 37 °C for 18 h. MIC values of antibiotics and their combination with tested compounds were detected by visual inspection.

[2] = tested on: E. coli AG100; test: as above; format: cell-based, Escherichia coli; conditions: for MIC of antibiotic in the absence of the compounds: antibiotic alone; for CIP MIC in combination with compounds: value is the MIC of ciprofloxacin
Method: as §1, §2

[3] = tested on: E. coli AG100; test: Real-time ethidium bromide accumulation (efflux pump inhibition, AcrAB-TolC); format: cell-based, Escherichia coli; conditions: compounds at ¼ MIC, EB 1 μg/mL, minute 30
Method: (§3) Since multidrug resistance EPs are very important factors contributing to multidrug resistance (MDR) in both Gram-positive and Gram-negative bacteria, the inhibition of these pumps could reverse the resistant phenotype and restore the activity of antibiotics. The effect of compounds on ethidium bromide (EB) accumulation was determined by the automated EB method. This assay was used to determine how much of the fluorescent dye and pump substrate EB was accumulated by the bacterial cells in the presence of the tested compounds. The real-time accumulation of EB was monitored for 30 min in both S. aureus and E. coli strains.
(§4) The accumulation of the efflux pump substrate EB was monitored by the automated EB method using a LightCycler real-time thermocycler (LightCycler 1.5, Roche, Indianapolis, IN, USA). An aliquot of an overnight culture of the S. aureus strains in TSB medium was inoculated into fresh TSB medium, and it was incubated until it reached an optical density (OD) of 0.6 at 600 nm. In the case of E. coli strains, the medium applied in the assay was LB broth; the preparation of the inoculum was similar to the one of S. aureus. The cells were washed with phosphate buffered saline (PBS; pH 7.4) and centrifuged at 13,000 × g for 3 min, the pellets were re-suspended in PBS (pH 7.4), and the OD was calibrated to 0.6 at 600 nm. The compounds were measured at ¼ MIC concentration (in double-concentrated form) to the EB solution in PBS. The final concentration of EB was determined according to the MIC and the fluorescent signal produced by this amount of EB. In the case of all strains, the concentration of EB was 1 μg/mL. Then, 10 μL of the EB solution plus the compound were pipetted into standard glass capillary tubes of 20 µL maximum volume (Roche, Indianapolis, USA), and 10 μL of bacterial culture (OD of 0.6 at 600 nm) were transferred to the capillaries. The capillaries containing the samples were placed into the carousel, and the fluorescence was monitored at the FL-2 channel in every minute on a real-time basis.
(§5) Based on the data obtained, the relative fluorescence index (RFI) of the last time point (minute 30) was determined as follows:RFI = (RFtreated − RFuntreated)/RFuntreated(1) where RFtreated is the relative fluorescence (RF) at the last time point of the EB retention curve in the presence of an inhibitor, and RFuntreated is the relative fluorescence at the last time point of the EB retention curve of the untreated control having the solvent control (DMSO).

[4] = tested on: E. coli AG100 A; test: Real-time ethidium bromide accumulation (efflux pump inhibition); format: cell-based, Escherichia coli; conditions: compounds at ¼ MIC, EB 1 μg/mL, minute 30
Method: as §3, §4, §5

[5] = tested on: S. aureus ATCC 25923; test: as above; format: cell-based, Staphylococcus aureus; conditions: compounds at ¼ MIC, EB 1 μg/mL, minute 30
Method: as §3, §4, §5

[6] = tested on: E. coli AG100; test: Minimum inhibitory concentration (broth microdilution, CLSI); format: cell-based, Escherichia coli
Method: The strains were donated by Prof. Dr. Hiroshi Nikaido (Department of Molecular and Cell Biology and Chemistry, University of California, Berkeley, CA, USA).
(§6) The minimum inhibitory concentrations (MICs) of compounds were determined in 96-well plates based on the Clinical and Laboratory Standard Institute guidelines (CLSI guidelines). The compounds were diluted in 100 μL of MHB. Then, 10^−4 dilution of an overnight bacterial culture in 100 μL of medium were added to each well, with the exception of the medium control wells.

[7] = tested on: S. aureus 272123 (MRSA); test: as above; format: cell-based, Staphylococcus aureus; conditions: 18 h, visual inspection
Method: (§7) The compounds were further investigated against two Gram-positive strains, S. aureus ATCC 25923 (MSSA), used as the methicillin susceptible reference strain, and the methicillin- and ofloxacin-resistant S. aureus 272123 clinical isolate (MRSA), which was given by Prof. Dr. Leonard Amaral (Institute of Hygiene and Tropical Medicine, Lisbon, Portugal).
as §6

[8] = tested on: MRC-5 human embryonal lung fibroblast cell line; test: Cytotoxicity assay (MTT); format: cell-based
Method: The MRC-5 human embryonic lung fibroblast cell line (ATCC CCL-171; provider: LGC Promochem, Teddington, UK) was used in the experiments. The cells were cultivated in Eagle’s Minimal Essential Medium (EMEM; Sigma–Aldrich, St. Louis, MO, USA), supplemented with 1% non-essential amino acid mixture, 10% heat-inactivated fetal bovine serum, 2 mM L-glutamine, 1 mM Na-pyruvate, nystatin, and a penicillin–streptomycin mixture in concentrations of 100 U/L and 10 mg/L, respectively. The supplementary components were obtained from Sigma–Aldrich, St. Louis, MO, USA. The cell culture was kept in a humidified atmosphere (5% CO2, 95% air) at 37 °C.
The activity of increasing concentrations of the compounds on cell growth was determined in 96-well flat-bottomed microtiter plates by two-fold serial dilutions of the benzoxazole derivatives. The adherent human embryonic lung fibroblast cells (10^4/well) was seeded in EMEM medium in 96-well microtiter plates for 4 h prior to the assay. The serial dilutions of the compounds were made in a separate plate, and then pipetted to the plates containing the MRC-5 cell line. Culture plates were incubated at 37 °C for 24 h; at the end of the incubation period, 20 μL of MTT (3-(4,5-dimethylthiazol-2-yl)-2,5-diphenyltetrazolium bromide) solution (from a 5 mg/mL stock solution) was measured to each well. After the incubation at 37 °C for 4 h, 100 μL of sodium dodecyl sulfate (SDS) solution (10% SDS in 0.01 M HCl) was added to each well to dissolve the formazan crystals and the samples were further incubated at 37 °C overnight. Cell growth was calculated by measuring the OD at 540 nm (ref. 630 nm) with a Multiscan EX ELISA reader. The cytotoxicity was expressed as IC50 values, defined as the inhibitory dose that reduces the growth of the cells exposed to the tested compounds by 50%.

[9] = tested on: E. coli AG100 A; test: Minimum inhibitory concentration (broth microdilution, CLSI); format: cell-based, Escherichia coli; conditions: 18 h
Method: Wild-type E. coli K-12 AG100 strain (argE3 thi-1 rpsL xyl mtl Δ(gal-uvrB) supE44) expressing the AcrAB TolC EP at its basal level and its AcrAB-TolC deleted mutant E. coli K-12 AG100 A strain. The strains were donated by Prof. Dr. Hiroshi Nikaido (Department of Molecular and Cell Biology and Chemistry, University of California, Berkeley, CA, USA).
as §6

[10] = tested on: Enterobacter cloacae 31298; test: as above; format: cell-based; conditions: E. cloacae 31298
Method: (§8) The following bacterial strains were applied in the QS tests: C. violaceum 026 as sensor strain and E. cloacae 31298 isolated from clinical wound (used as N-acyl-homoserine lactone (AHL) producer); this strain induced pigment production by C. violaceum and is a model strain to study QS interactions.
as §6

[11] = tested on: Chromobacterium violaceum 026; test: as above; format: cell-based; conditions: C. violaceum 026
Method: as §8, §6

[12] = tested on: Staphylococcus aureus ATCC 25923; test: as above; format: cell-based; conditions: S. aureus ATCC 25923, 18 h, visual inspection
Method: as §7, §6

[13] = tested on: S. aureus 272123 (MRSA); test: Real-time ethidium bromide accumulation (efflux pump inhibition); format: cell-based, Staphylococcus aureus; conditions: compounds at ¼ MIC (3 at 12.5 µM), VER at 25 µM, EB 1 μg/mL, minute 30
Method: as §3, §4, §5

[14] = Staphylococcus aureus, ATCC25923
[15] = Escherichia coli, E. coli AG100, 18 h, visual inspection, read-out: MIC
[16] = E. coli AG100, 18 h, visual inspection, read-out: MIC
[17] = E. coli AG100 A (AcrAB-TolC deleted), visual inspection

SMILES | Relative fluorescence index (RFI) [3] | Relative fluorescence index (RFI) [4] | Relative fluorescence index (RFI) [5] | MIC [7] [µM] | MIC ([7]; Staphylococcus aureus) [µM] | Cytotoxic effect (class in words) ([8]; 24 h) | pIC50 ([8]; Homo sapiens, MRC5, 24 h) | MIC ([9]; Escherichia coli, AG100A) [µM] | MIC ([10]; Enterobacter cloacae) [µM] | MIC ([11]; Chromobacterium violaceum) [µM] | MIC [12, 14] [µM] | Relative fluorescence index (RFI) [13] | MIC [6, 16] [µM] | pIC50 ([8]; 24 h) | MIC [9, 17] [µM] | MIC [10] [µM] | MIC [11] [µM] | MIC [12] [µM] | other results
O=C(O)c1cn(C2CC2)c2cc(N3CCNCC3)c(F)cc2c1=O [CIP, ciprofloxacin, reference compound] |  |  |  |  |  |  |  |  |  |  |  |  |  |  |  |  |  |  | MIC of antibiotic in the absence of the compounds [1]: 12.5 µM; MIC of antibiotic in the absence of the compounds [2]: 0.016 µM
CN(C)CCCN1c2ccccc2Sc2ccc(Cl)cc21 [CPZ, Chlorpromazine, reference compound] | 0.38 | 0.48 | 0.17 |  |  |  |  |  |  |  |  |  |  |  |  |  |  |  | 
O=C(Cc1nc2ccccc2o1)C(F)(F)F [Compound 1, 2-trifluoroacetonylbenzoxazole] | −0.35 | 0 | −0.11 | 12.5 (≈ 2.86 µg/mL) | 12.5 (≈ 2.86 µg/mL) | no (IC50 > 100 µM) | < 4.00 | 50 (≈ 11.5 µg/mL) | > 100 | > 100 | 25 (≈ 5.73 µg/mL) | −0.14 |  |  |  |  |  |  | MIC ([6]; Escherichia coli, AG100, 18 h): 50 µM (≈ 11.5 µg/mL)
O=C(Cc1nc2ccccc2o1)C(F)(F)Cl [Compound 2] | 0.17 | −0.01 | −0.07 | 3.125 (≈ 0.768 µg/mL) | 3.12 (≈ 0.768 µg/mL) | no (IC50 > 100 µM) | < 4.00 | 25 (≈ 6.14 µg/mL) | > 100 | > 100 | 12.5 (≈ 3.07 µg/mL) | −0.07 |  |  |  |  |  |  | MIC [6, 15]: 50 µM (≈ 12.3 µg/mL)
[O-]C(=Cc1nc2ccccc2o1)C(F)F.[O-]C(=Cc1nc2ccccc2o1)C(F)F.[Zn+2] [Compound 6] | 0.08 | −0.15 | 0.08 | 12.5 |  | strong (IC50: 0–30) |  |  |  |  |  | −0.02 | 50 | 5.33 | 12.5 | >100 | >100 | 25 | 
[Cu+2].[O-]C(=Cc1nc2ccccc2o1)C(F)(F)F.[O-]C(=Cc1nc2ccccc2o1)C(F)(F)F [Compound 7] | −0.06 | 0.11 | 0.12 | 3.125 |  | weak (IC50: 61–100) |  |  |  |  |  | −0.01 | >100 | 4.12 | 12.5 | >100 | >100 | 12.5 | Reduction of the MIC value of CIP [1]: 2 fold; CIP MIC in combination with compounds [1]: 6.25 µM; CIP MIC in combination with compounds ([2]; compound at ¼ MIC): 0.016 µM
FC(F)(F)C1=Cc2oc3ccccc3[n+]2[Mg-2]2([O]1)[O]C(C(F)(F)F)=Cc1oc3ccccc3[n+]12 [Compound 9] |  |  |  |  | 6.25 | no (IC50 > 100 µM) | < 4.00 | 25 | > 100 | > 100 | 25 |  |  |  |  |  |  |  | Reduction of the MIC value of CIP [1]: 2 fold; CIP MIC in combination with compounds [1]: 6.25 µM; MIC [6, 15]: 50 µM; Reduction of the MIC of CIP ([2]; compound at ¼ MIC): 2 fold; CIP MIC in combination with compounds ([2]; compound at ¼ MIC): 0.008 µM
[O-]C(=Cc1nc2ccccc2o1)C(F)(F)F.[O-]C(=Cc1nc2ccccc2o1)C(F)(F)F.[Pd+2] [Compound 10] | −0.06 | 0 | 0 | >100 |  | weak (IC50: 61–100) |  |  |  |  |  | 0 | >100 | 4.05 | >100 | >100 | >100 | >100 | 
CN(C)[C@@H]1C(O)=C(C(N)=O)C(=O)[C@@]2(O)C(O)=C3C(=O)c4c(O)cccc4[C@@](C)(O)[C@H]3C[C@@H]12 [TET, tetracycline, reference compound] |  |  |  |  |  |  |  |  |  |  |  |  |  |  |  |  |  |  | MIC of antibiotic in the absence of the compounds [1]: 6.25 µM; MIC of antibiotic in the absence of the compounds [2]: 50 µM
